PubChem BioAssay AID1919000 (Molecular Pharmacology Branch, DTP, NCI, 2023)

Tested on: 653999-131-R-J2-PDC complex spheroids, growth % test/control
Test: Anticancer human tumor 653999-131-R-J2-PDC patient-derived lung adenocarcinoma cell line growth inhibition [AhR]
Conditions: for IC50: curve of first compound; for viability, T/C: stronger effect = lower value; active = viability on the fitted dose curve at most 10% of control; inactive = the rest
How it was run: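 Spheroids combined tumor cells with HUVEC endothelial cells and human MSCs as stroma. AhR antagonists were paired with standard or investigational drugs, each dosed in half-log steps down from near clinical Cmax, or from 10 microM where Cmax was unknown.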

[1] = second compound 0.1 µM, first compound 0.0316 µM
[2] = second compound 0.1 µM, first compound 0.1 µM
[3] = second compound 0.1 µM, first compound 0.316 µM
[4] = second compound 0.1 µM, first compound 1 µM
[5] = second compound 0.1 µM, first compound 3.16 µM
[6] = second compound 0.1 µM, first compound 10 µM
[7] = second compound 0.316 µM, first compound 0.0316 µM
[8] = second compound 0.316 µM, first compound 0.1 µM
[9] = second compound 0.316 µM, first compound 0.316 µM
[10] = second compound 0.316 µM, first compound 1 µM
[11] = second compound 0.316 µM, first compound 3.16 µM
[12] = second compound 0.316 µM, first compound 10 µM
[13] = second compound 1 µM, first compound 0.0316 µM
[14] = second compound 1 µM, first compound 0.1 µM
[15] = second compound 1 µM, first compound 0.316 µM
[16] = second compound 1 µM, first compound 1 µM
[17] = second compound 1 µM, first compound 3.16 µM
[18] = second compound 1 µM, first compound 10 µM
[19] = second compound 3.16 µM, first compound 0.0316 µM
[20] = second compound 3.16 µM, first compound 0.1 µM
[21] = second compound 3.16 µM, first compound 0.316 µM
[22] = second compound 3.16 µM, first compound 1 µM
[23] = second compound 3.16 µM, first compound 3.16 µM
[24] = second compound 3.16 µM, first compound 10 µM
[25] = second compound 10 µM, first compound 0.0316 µM
[26] = second compound 10 µM, first compound 0.1 µM
[27] = second compound 10 µM, first compound 0.316 µM
[28] = second compound 10 µM, first compound 1 µM
[29] = second compound 10 µM, first compound 3.16 µM
[30] = second compound 10 µM, first compound 10 µM
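Also: spheroids exposed to agents for seven days.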
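For viability, T/C in this document: 100% = DMSO vehicle control viability.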

CC(C)c1c(-c2ccccc2)nc2c(C#N)c[nH]n2c1=O + Cc1ccccc1N=Nc1ccc(NC(=O)c2ccnn2C)c(C)c1
inactive: viability, T/C [1] 97.4% | viability, T/C [2] 101% | viability, T/C [3] 107% | viability, T/C [4] 95.6% | viability, T/C [5] 98.5% | viability, T/C [6] 99.1% | viability, T/C [7] 96.5% | viability, T/C [8] 105% | viability, T/C [9] 103% | viability, T/C [10] 98.9% | viability, T/C [11] 98.2% | viability, T/C [12] 111% | viability, T/C [13] 106% | viability, T/C [14] 126% | viability, T/C [15] 108% | viability, T/C [16] 105% | viability, T/C [17] 109% | viability, T/C [18] 104% | viability, T/C [19] 99.4% | viability, T/C [20] 115% | viability, T/C [21] 107% | viability, T/C [22] 92.8% | viability, T/C [23] 90.3% | viability, T/C [24] 105% | viability, T/C [25] 97.5% | viability, T/C [26] 105% | viability, T/C [27] 111% | viability, T/C [28] 92.7% | viability, T/C [29] 107% | viability, T/C [30] 108%
> 10 µM: IC50 (second compound 0.1 µM) | IC50 (second compound 0.316 µM) | IC50 (second compound 1 µM) | IC50 (second compound 3.16 µM) | IC50 (second compound 10 µM)

CC1COCCN1c1cc(-c2ccnn2C)c2ccnc(-c3ccn[nH]3)c2n1 (stereo not given) + Cc1ccccc1N=Nc1ccc(NC(=O)c2ccnn2C)c(C)c1
inactive: viability, T/C (second compound 0.1 µM, first compound 0.00316 µM) 98.7% | viability, T/C (second compound 0.1 µM, first compound 0.01 µM) 101% | viability, T/C [1] 82% | viability, T/C [2] 59.7% | viability, T/C [3] 38.7% | viability, T/C [4] 34.5% | viability, T/C (second compound 0.316 µM, first compound 0.00316 µM) 103% | viability, T/C (second compound 0.316 µM, first compound 0.01 µM) 103% | viability, T/C [7] 78.4% | viability, T/C [8] 60.3% | viability, T/C [9] 36.6% | viability, T/C [10] 31.8% | viability, T/C (second compound 1 µM, first compound 0.00316 µM) 102% | viability, T/C (second compound 1 µM, first compound 0.01 µM) 100% | viability, T/C [13] 76.9% | viability, T/C [14] 65.1% | viability, T/C [15] 37.9% | viability, T/C [16] 36.3% | viability, T/C (second compound 3.16 µM, first compound 0.00316 µM) 103% | viability, T/C (second compound 3.16 µM, first compound 0.01 µM) 107% | viability, T/C [19] 84.5% | viability, T/C [20] 54.9% | viability, T/C [21] 39.8% | viability, T/C [22] 35.1% | viability, T/C (second compound 10 µM, first compound 0.00316 µM) 89.7% | viability, T/C (second compound 10 µM, first compound 0.01 µM) 89.3% | viability, T/C [25] 76.3% | viability, T/C [26] 57.6% | viability, T/C [27] 49.8% | viability, T/C [28] 39.1%
0.193 µM: IC50 (second compound 1 µM)
0.168 µM: IC50 (second compound 0.1 µM)
0.233 µM: IC50 (second compound 10 µM)
0.138 µM: IC50 (second compound 3.16 µM)
0.157 µM: IC50 (second compound 0.316 µM)

CC1COCCN1c1cc(C2(S(C)(=N)=O)CC2)nc(-c2ccnc3[nH]ccc23)n1 (stereo not given) + Cc1ccccc1N=Nc1ccc(NC(=O)c2ccnn2C)c(C)c1
8.18 µM: IC50 (second compound 1 µM)
8.83 µM: IC50 (second compound 0.1 µM)
7.29 µM: IC50 (second compound 0.316 µM)
6.75 µM: IC50 (second compound 10 µM)
inactive: viability, T/C [1] 110% | viability, T/C [2] 90.1% | viability, T/C [3] 110% | viability, T/C [4] 83.5% | viability, T/C [5] 71.2% | viability, T/C [6] 47.3% | viability, T/C [7] 98.3% | viability, T/C [8] 102% | viability, T/C [9] 106% | viability, T/C [10] 94.5% | viability, T/C [11] 63% | viability, T/C [12] 45.1% | viability, T/C [13] 93.4% | viability, T/C [14] 95.3% | viability, T/C [15] 94.5% | viability, T/C [16] 84% | viability, T/C [17] 65.9% | viability, T/C [18] 46.6% | viability, T/C [19] 98% | viability, T/C [20] 86% | viability, T/C [21] 92.8% | viability, T/C [22] 80.8% | viability, T/C [23] 70.1% | viability, T/C [24] 41.6% | viability, T/C [25] 94.3% | viability, T/C [26] 83% | viability, T/C [27] 80.8% | viability, T/C [28] 71.2% | viability, T/C [29] 63.3% | viability, T/C [30] 42.8%
7.12 µM: IC50 (second compound 3.16 µM)

COc1ccc([C@@H](O)c2cc(-c3ncnc4cc(N5CCOCC5)ccc34)c(F)cc2Cl)nn1 + Cc1ccccc1N=Nc1ccc(NC(=O)c2ccnn2C)c(C)c1
7.77 µM: IC50 (second compound 10 µM)
> 10 µM: IC50 (second compound 0.316 µM) | IC50 (second compound 1 µM) | IC50 (second compound 3.16 µM)
inactive: viability, T/C [1] 101% | viability, T/C [2] 105% | viability, T/C [3] 88.7% | viability, T/C [4] 74.2% | viability, T/C [5] 66% | viability, T/C [6] 48.6% | viability, T/C [7] 114% | viability, T/C [8] 114% | viability, T/C [9] 88.7% | viability, T/C [10] 83.6% | viability, T/C [11] 65% | viability, T/C [12] 51.8% | viability, T/C [13] 96% | viability, T/C [14] 94.5% | viability, T/C [15] 109% | viability, T/C [16] 87.6% | viability, T/C [17] 62.8% | viability, T/C [18] 54.9% | viability, T/C [19] 96% | viability, T/C [20] 107% | viability, T/C [21] 98.7% | viability, T/C [22] 88.1% | viability, T/C [23] 67.9% | viability, T/C [24] 54.5% | viability, T/C [25] 89.5% | viability, T/C [26] 101% | viability, T/C [27] 95.1% | viability, T/C [28] 83.6% | viability, T/C [29] 70.9% | viability, T/C [30] 44.2%
9.88 µM: IC50 (second compound 0.1 µM)

O=C(C=Cn1cnc(-c2cc(C(F)(F)F)cc(C(F)(F)F)c2)n1)NNc1cnccn1 + Cc1ccccc1N=Nc1ccc(NC(=O)c2ccnn2C)c(C)c1
0.839 µM: IC50 (second compound 0.1 µM)
> 3 µM: IC50 (second compound 10 µM)
1.96 µM: IC50 (second compound 3.16 µM)
inactive: viability, T/C (second compound 0.1 µM, first compound 0.00949 µM) 106% | viability, T/C (second compound 0.1 µM, first compound 0.03 µM) 76.8% | viability, T/C (second compound 0.1 µM, first compound 0.0949 µM) 72.7% | viability, T/C (second compound 0.1 µM, first compound 0.3 µM) 49.5% | viability, T/C (second compound 0.1 µM, first compound 0.949 µM) 48.9% | viability, T/C (second compound 0.1 µM, first compound 3 µM) 48% | viability, T/C (second compound 0.316 µM, first compound 0.00949 µM) 91.8% | viability, T/C (second compound 0.316 µM, first compound 0.03 µM) 93.3% | viability, T/C (second compound 0.316 µM, first compound 0.0949 µM) 70.5% | viability, T/C (second compound 0.316 µM, first compound 0.3 µM) 55.8% | viability, T/C (second compound 0.316 µM, first compound 0.949 µM) 45.3% | viability, T/C (second compound 0.316 µM, first compound 3 µM) 47.9% | viability, T/C (second compound 1 µM, first compound 0.00949 µM) 94.4% | viability, T/C (second compound 1 µM, first compound 0.03 µM) 91.1% | viability, T/C (second compound 1 µM, first compound 0.0949 µM) 66% | viability, T/C (second compound 1 µM, first compound 0.3 µM) 56.9% | viability, T/C (second compound 1 µM, first compound 0.949 µM) 49.3% | viability, T/C (second compound 1 µM, first compound 3 µM) 47.4% | viability, T/C (second compound 3.16 µM, first compound 0.00949 µM) 105% | viability, T/C (second compound 3.16 µM, first compound 0.03 µM) 81.1% | viability, T/C (second compound 3.16 µM, first compound 0.0949 µM) 75.9% | viability, T/C (second compound 3.16 µM, first compound 0.3 µM) 58.4% | viability, T/C (second compound 3.16 µM, first compound 0.949 µM) 55.7% | viability, T/C (second compound 3.16 µM, first compound 3 µM) 47% | viability, T/C (second compound 10 µM, first compound 0.00949 µM) 85.7% | viability, T/C (second compound 10 µM, first compound 0.03 µM) 83.8% | viability, T/C (second compound 10 µM, first compound 0.0949 µM) 66.7% | viability, T/C (second compound 10 µM, first compound 0.3 µM) 53.6% | viability, T/C (second compound 10 µM, first compound 0.949 µM) 52% | viability, T/C (second compound 10 µM, first compound 3 µM) 49%
0.864 µM: IC50 (second compound 1 µM)
0.586 µM: IC50 (second compound 0.316 µM)
